# In patent US11136317B2, “NADPH oxidase 4 inhibitors” (ACTELION PHARMACEUTICALS LTD, priority 2015, dated 2021):
# Target: T1, human NOX4 (Homo sapiens, UniProt Q9NPH5)
# T1 construct: The full-length human NOX4 (NM_016931.3) transcript was cloned; expressed in transfected cells
# T1 sequence (Q9NPH5 1-578): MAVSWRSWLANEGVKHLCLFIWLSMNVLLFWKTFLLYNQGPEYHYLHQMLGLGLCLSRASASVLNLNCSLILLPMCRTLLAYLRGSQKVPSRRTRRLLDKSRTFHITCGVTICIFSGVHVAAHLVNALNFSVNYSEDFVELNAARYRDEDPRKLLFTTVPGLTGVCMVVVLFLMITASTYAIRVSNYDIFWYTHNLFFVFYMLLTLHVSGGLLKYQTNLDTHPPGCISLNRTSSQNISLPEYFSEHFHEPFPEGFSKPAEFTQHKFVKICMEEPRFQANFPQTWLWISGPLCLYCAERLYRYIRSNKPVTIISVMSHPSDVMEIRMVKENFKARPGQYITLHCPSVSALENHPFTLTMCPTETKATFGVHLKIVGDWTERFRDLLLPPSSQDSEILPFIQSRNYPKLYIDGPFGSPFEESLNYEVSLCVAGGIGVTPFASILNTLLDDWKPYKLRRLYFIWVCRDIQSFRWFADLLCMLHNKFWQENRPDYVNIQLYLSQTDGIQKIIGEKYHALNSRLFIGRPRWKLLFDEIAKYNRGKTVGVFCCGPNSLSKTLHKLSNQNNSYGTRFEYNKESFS
# T1 sequence (P13498 1-195 partner): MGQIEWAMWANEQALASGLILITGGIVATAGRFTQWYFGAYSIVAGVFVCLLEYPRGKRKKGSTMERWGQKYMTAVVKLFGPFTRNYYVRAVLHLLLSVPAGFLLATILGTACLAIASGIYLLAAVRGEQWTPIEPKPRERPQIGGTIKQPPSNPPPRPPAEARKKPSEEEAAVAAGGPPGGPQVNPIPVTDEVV
# Experiment: Amplex Red activity assay (cellular H2O2 formation in hNOX4 T-REx-293 cells)
# Assay type: cell-based
# Conditions: tet-induced 24 h, extracellular H2O2 by Amplex Red, 60 min 25° C., geometric mean if determined several times
# Protocol: The nucleotide sequence and the amino acid sequence for the human NOX4 (Entrez Gene ID 50507) is known in the art and are published. The potency and efficacy of the compounds of Formula (I) are assessed for their potential to inhibit the formation of ROS in a cellular assay.
# The full-length human NOX4 (NM_016931.3) transcript was cloned into the pDONR™221 vector (Life Technologies™) in order to generate, by site-specific integration according to the recommendation of the manufacturer (Life Technologies™), a recombinant pJTI™ R4 DEST CMV-TO vector containing the NOX4 coding information controlled by tetracycline (tet) responsive tet-on cytomegalovirus promoter (hNOX4 pDEST).
# Modified human embryonic kidney cells overexpressing a tet receptor (Jump-In™ T-REx™ HEK293; Life Technologies™) were transfected with the NOX4-containing tet-on vector (hNOX4 pDEST) to generate a stable recombinant cell pool (hNOX4 T-REx-293). hNOX4 T-REx-293 cells were cultured in DMEM containing 4.5 g/L glucose supplemented with 10% fetal calf serum, penicillin (100 U/mL), streptomycin (100 μg/mL), geneticin (1 mg/mL), and blasticidin (5 μg/mL) at 37° C. in air with 5% CO2. Human Nox4 expression was induced with tet (1 μg/mL) for 24 h and extracellular H2O2 was quantified using the Amplex Red reagent (Life Technologies™).
# Compounds were prepared as 10 mM stock solution in DMSO vehicle, then diluted in 384-well plates using DMSO followed by a transfer of the dilutions into the assay plate. As a control, diphenylene iodonium was included at a final concentration of 10 μM. Compounds were tested at 10 concentrations in the range from 50 μM highest to 100 nM lowest.
# Cellular H2O2 formation was measured using the Amplex Red reagent. […] Cells were seeded into 384-well clear bottom plates at a density of 20 000 cells per well in presence or absence of compounds. […] All wells contained 1.25% of DMSO. The plates were kept at 25° C. for 60 min. The amount of produced resorufin was detected with the Synergy™ Mx microplate reader (BioTek) with excitation and emission wavelengths set to 550 nm and 600 nm, respectively. Fluorescence was measured for each well and the fluorescence at 600 nm wavelength was compared to the fluorescence of the vehicle in place of compound. Inhibitory activities of example compounds were determined by calculating the IC50 value (the concentration of compound needed to inhibit 50% of the enzyme activity). The calculated IC50 values may fluctuate depending on the daily cellular assay performance. Fluctuations of this kind are known to those skilled in the art.
row,SMILES,IC50
1,"CN1CCN(c2nc3cc(C(=O)Nc4ccc5c(c4)OCCO5)ccc3s2)CC1 [Example 206, 2-(4-Methyl-piperazin-1-yl)-benzothiazole-5-carboxylic acid (2,3-dihydro-benzo[1,4]dioxin-6-yl)-amide]",21.2 µM
2,"O=C(Nc1ccc2sc(N3CC(O)C3)nc2c1)c1ccc2c(c1)CCO2 [Example 109, 2,3-Dihydro-benzofuran-5-carboxylic acid [2-(3-hydroxy-azetidin-1-yl)-benzothiazol-5-yl]-amide]",1.78 µM
3,"COC1CCN(c2nc3cc(NC(=O)c4ccc5c(c4)N(C)CCO5)ccc3o2)CC1 [Example 191, 4-Methyl-3,4-dihydro-2H-benzo[1,4]oxazine-6-carboxylic acid [2-(4-methoxy-piperidin-1-yl)-benzooxazol-5-yl]-amide]",4.38 µM
4,"CN(C)CC1CN(c2nc3cc(NC(=O)c4ccc5c(c4)CCO5)ccc3o2)C1 [Example 66, 2,3-Dihydro-benzofuran-5-carboxylic acid [2-(3-dimethylaminomethyl-azetidin-1-yl)-benzooxazol-5-yl]-amide]",4.17 µM
5,"O=C(Nc1ccc2oc(N3CCCC4(COC4)C3)nc2c1)c1ccc2c(c1)OCO2 [Example 133, Benzo[1,3]dioxole-5-carboxylic acid [2-(2-oxa-6-aza-spiro[3.5]non-6-yl)-benzooxazol-5-yl]-amide]",0.614 µM
6,"O=C(Nc1ccc2oc(N3CCOCC3)nc2c1)c1ccc2c(c1)OCO2 [Example 136, Benzo[1,3]dioxole-5-carboxylic acid (2-morpholin-4-yl-benzooxazol-5-yl)-amide]",1.28 µM
7,"CN1CCOc2ccc(C(=O)Nc3ccc4oc(N5CCS(=O)(=O)CC5)nc4c3)cc21 [Example 41, 4-Methyl-3,4-dihydro-2H-benzo[1,4]oxazine-6-carboxylic acid [2-(1,1-dioxo-thiomorpholin-4-yl)-benzooxazol-5-yl]-amide]",2.52 µM
8,"O=C(Nc1ccc2oc(N3CCCC(F)(F)C3)nc2c1)c1ccc2c(c1)OCCO2 [Example 168, 2,3-Dihydro-benzo[1,4]dioxine-6-carboxylic acid [2-(3,3-difluoro-piperidin-1-yl)-benzooxazol-5-yl]-amide]",1.14 µM
9,"CN(C)C1CCN(c2nc3cc(NC(=O)c4ccc5c(c4)CCO5)ccc3o2)CC1 [Example 14, 2,3-Dihydro-benzofuran-5-carboxylic acid [2-(4-dimethylamino-piperidin-1-yl)-benzooxazol-5-yl]-amide; compound with formic acid]",1.7 µM
10,"COC1CCN(c2nc3cc(NC(=O)c4ccc5c(c4)CCCO5)ccc3o2)CC1 [Example 152, Chroman-6-carboxylic acid [2-(4-methoxy-piperidin-1-yl)-benzooxazol-5-yl]-amide]",1.35 µM
11,"O=C(Nc1ccc2sc(N3CCC4(CC3)COC4)nc2c1)c1ccc2c(c1)CCO2 [Example 99, 2,3-Dihydro-benzofuran-5-carboxylic acid [2-(2-oxa-7-aza-spiro[3.5]non-7-yl)-benzothiazol-5-yl]-amide]",3.08 µM
12,"O=C(Nc1ccc2c(c1)CCO2)c1ccc2oc(N3CCCC3)nc2c1 [Example 79, 2-Pyrrolidin-1-yl-benzooxazole-5-carboxylic acid (2,3-dihydro-benzofuran-5-yl)-amide]",0.585 µM
13,"O=C(Nc1ccc2sc(N3CCC[C@H](O)C3)nc2c1)c1ccc2c(c1)CCO2 [Example 114, 2,3-Dihydro-benzofuran-5-carboxylic acid [2-((S)-3-hydroxy-piperidin-1-yl)-benzothiazol-5-yl]-amide]",2.94 µM
14,"O=C(Nc1ccc2c(c1)CCO2)c1ccc2oc(N3CCOCC3)nc2c1 [Example 77, 2-Morpholin-4-yl-benzooxazole-5-carboxylic acid (2,3-dihydro-benzofuran-5-yl)-amide]",0.548 µM
15,"O=C(Nc1ccc2oc(N3CC(N4CCOCC4)C3)nc2c1)c1ccc2c(c1)CCO2 [Example 17, 2,3-Dihydro-benzofuran-5-carboxylic acid [2-(3-morpholin-4-yl-azetidin-1-yl)-benzooxazol-5-yl]-amide]",2.3 µM
16,"O=C(Nc1ccc2oc(N3CC[C@@H](O)C3)nc2c1)c1ccc2c(c1)CCO2 [Example 45, 2,3-Dihydro-benzofuran-5-carboxylic acid [2-((R)-3-hydroxy-pyrrolidin-1-yl)-benzooxazol-5-yl]-amide]",0.573 µM
17,"O=C(Nc1ccc2sc(N3CCC3c3ccccc3)nc2c1)c1ccc2c(c1)CCO2 (racemic) [Example 111, rac-2,3-Dihydro-benzofuran-5-carboxylic acid [2-(2-phenyl-azetidin-1-yl)-benzothiazol-5-yl]-amide]",1.09 µM

# Results, then the compound that gave them:
row,IC50,SMILES
1,0.359 µM,"O=C(Nc1ccc2oc(N(C3CC3)C3COC3)nc2c1)c1ccc2c(c1)CCO2 [Example 63, 2,3-Dihydro-benzofuran-5-carboxylic acid [2-(cyclopropyl-oxetan-3-yl-amino)-benzooxazol-5-yl]-amide]"
2,21.8 µM,"CN1CCOc2ccc(C(=O)Nc3ccc4oc(N5CC(F)(F)C5)nc4c3)cc21 [Example 178, 4-Methyl-3,4-dihydro-2H-benzo[1,4]oxazine-6-carboxylic acid [2-(3,3-difluoro-azetidin-1-yl)-benzooxazol-5-yl]-amide]"
3,1.48 µM,"O=C(Nc1ccc2oc(N(C3CC3)C3COC3)nc2c1)c1ccc2c(c1)OCO2 [Example 138, Benzo[1,3]dioxole-5-carboxylic acid [2-(cyclopropyl-oxetan-3-yl-amino)-benzooxazol-5-yl]-amide]"
4,8.9 µM,"CN1CCN(c2nc3cc(C(=O)Nc4ccc5c(c4)OCO5)ccc3s2)CC1 [Example 211, 2-(4-Methyl-piperazin-1-yl)-benzothiazole-5-carboxylic acid benzo[1,3]dioxol-5-ylamide]"
5,2.86 µM,"O=C(Nc1ccc2oc(N(C3CC3)C3COC3)nc2c1)c1ccc2c(c1)CCCO2 [Example 158, Chroman-6-carboxylic acid [2-(cyclopropyl-oxetan-3-yl-amino)-benzooxazol-5-yl]-amide]"
6,1.74 µM,"O=C(Nc1ccc2oc(N3CCCC34COC4)nc2c1)c1ccc2c(c1)OCO2 [Example 128, Benzo[1,3]dioxole-5-carboxylic acid [2-(2-oxa-5-aza-spiro[3.4]oct-5-yl)-benzooxazol-5-yl]-amide]"
7,0.711 µM,"COC1CCN(c2nc3cc(NC(=O)c4ccc5c(c4)CCO5)ccc3o2)C1 (stereo not drawn) [Example 10, 2,3-Dihydro-benzofuran-5-carboxylic acid [2-(3-methoxy-pyrrolidin-1-yl)-benzooxazol-5-yl]-amide]"
8,1.5 µM,"O=C(Nc1ccc2oc(N3CCCCC3)nc2c1)c1ccc2c(c1)OCCO2 [Example 166, 2,3-Dihydro-benzo[1,4]dioxine-6-carboxylic acid (2-piperidin-1-yl-benzooxazol-5-yl)-amide]"
9,1.14 µM,"O=C(Nc1ccc2oc(N3CCC34CCOCC4)nc2c1)c1ccc2c(c1)OCCO2 [Example 163, 2,3-Dihydro-benzo[1,4]dioxine-6-carboxylic acid [2-(7-oxa-1-aza-spiro[3.5]non-1-yl)-benzooxazol-5-yl]-amide]"
10,2.03 µM,"CCN(CC)c1nc2cc(NC(=O)c3ccc4c(c3)CCCO4)ccc2o1 [Example 157, Chroman-6-carboxylic acid (2-diethylamino-benzooxazol-5-yl)-amide]"
